From patent US20080166805A1, “Culturing human cells and tissues in an N-glycolylneuraminic acid-free environment” (The Regents of the University of California, priority 2005, published 2008)

Test system: Caco-2 cells
Test: Endocytosis inhibition experiments (Neu5Gc uptake in Caco-2 cells)
Type: cell-based, human
Conditions: 2 h pre-treatment with drug, then 3 mM Neu5Gc
Method: The sonicate was centrifuged at 75×g for 15 min., and the pellet obtained consisted primarily of nuclei and unbroken cells. […] A portion (20%) of the “total homogenate” fraction was taken for protein quantification and Sia analysis by DMB derivatization and HPLC analysis (as discussed below.) The remainder was centrifuged at 100,000×g for 1 h. The resulting pellet, called the “membrane” fraction, was then resuspended by sonication (15 sec.) in 200 μl of sodium acetate buffer, pH 5.5. The 100,000×g supernatant, called the “soluble” fraction was adjusted to 90% ethanol using absolute ice-cold ethanol, and placed overnight at −20° C. The flocculant precipitate, which represents the “soluble protein” fraction, was washed 3 times with 90% ice-cold ethanol and then resuspended in 200 μl of water. The supernatant fluid representing the cytosolic low molecular weight (LMW) fraction was dried and brought up in 100 μL with water prior to Sia analysis. All the Sias in these fractions were released with mild acid hydrolysis if necessary and then analyzed by HPLC after DMB derivatization. Protein quantification was performed on the total homogenate, membrane and soluble protein fractions by using the BCA protein assay kit from Pierce (Rockford, Ill.) In some experiments, the resulting data obtained for the Sia bound to the membrane fraction and to the soluble proteins were pooled and presented here as a High Molecular Weight (HMW) fraction. Sialic Acid Release, DMB Derivatization and HPLC Analysis—The bound Sias from the total homogenate, membrane and soluble protein fractions were released using 2M acetic acid hydrolysis, 3 h. at 80° C. The released Sias, or free Sias, contained in the soluble LMW fraction were passed through a Microcon® YM-10 filter (Millipore, Bedford, Mass.) prior to DMB derivatization, which was done according to Hara et al., 1989. […] The eluant was monitored by fluorescence. Quantification of Sias—For all HPLC chromatograms, the quantification of Sias was done by comparison with known quantities of DMB derivatized Neu5Gc and Neu5Ac used as standards and then reported in terms of pmoles of Sia. For total homogenate, membrane and cytosolic protein fractions, this number was expressed per mg of protein. Due to minor sample-to-sample variations in amounts and recoveries, the data in the Figures is presented as percent of Neu5Gc over total Sias, rather than as absolute amounts. Endocytosis Inhibition Experiments—Caco-2 or normal fibroblast cells were split and cultured in alpha-MEM media supplemented respectively with 20% or 15% human serum for 4 days before starting the endocytosis drug inhibition experiments in order to deplete any Neu5Gc derived from FCS. Cells were then pre-treated for 2 h. with the specific inhibitors under the same culture conditions. Fresh media containing the same amount of inhibitor and 3 mM of Neu5Gc was then added to the cells, which were incubated for 16 h or 3 days and finally harvested and fractionated as described above.

Row | SMILES | Neu5Gc incorporation into membrane-bound glycoconjugates in the presence of inhibitor (percent of total Sia) [%] | incorporation of Neu5Gc in the TH fraction in the presence of inhibitor (percent of total Sia) [%]
1 | N=C(N)NC(=O)c1nc(Cl)c(N)nc1N [amiloride] | 10 | –
2 | CN(C)CCCN1c2ccccc2Sc2ccc(Cl)cc21 [chlorpromazine] | 50 | –
3 | O=c1c(-c2ccc(O)cc2)coc2cc(O)cc(O)c12 [genistein] | 34 | 51
4 | C[C@@H]1[C@H](O)[C@@H](C)/C=C/C=C/CC/C=C/C=C/C=C/C=C/C(O[C@H]2O[C@H](C)[C@@H](O)[C@H](N)[C@@H]2O)CC2O[C@](O)(CC(O)C(O)CCC(O)CC(O)CC(O)CC(=O)O[C@H]1C)CC(O)C2C(=O)O (stereo partly drawn) [nystatin] | 44 | ~65
